Reference: patent US20240239861A1, “GLUCAGON-RECEPTOR SELECTIVE POLYPEPTIDES AND METHODS OF USE THEREOF” (i2O Therapeutics, Inc., priority 2016, published 2024)
*1 amine or outer side, *2 acyl side, *3 side chain or, on linkers, in order; H or OH if unused. Where a SMILES comes first, the peptide text is derived from it. Side-chain parts run from the residue outwards. [ ]: non-standard residue; d: D form. The star is where a group is joined. C18 diacid = O=C(O)CCCCCCCCCCCCCCCCC(=O)*; γGlu = O=C(O)[C@H](CCC(=O)[*:2])N[*:1]; Palmitoyl = CCCCCCCCCCCCCCCC(=O)*; AEEA = NCCOCCOCC(=O)O; Aib = CC(C)(N)C(=O)O

Assays:
human GLP-1R = human GLP-1R (Homo sapiens, UniProt P43220); test: Peptide-receptor mediated cAMP accumulation (LANCE Ultra cAMP) in CHO-K1 cells transfected with human GLP-1R; assay type: cell-based; conditions: Table 7; GLP-1R; read-out: GLP-1R pEC50 (converted)
human GCGR = human GCGR (Homo sapiens, UniProt P47871); test: Peptide-receptor mediated cAMP accumulation (LANCE Ultra cAMP) in CHO-K1 cells transfected with human GCGR; assay type: cell-based; conditions: read-out: GluR pEC50 (converted)
Chain of human GCGR (P47871 26-477): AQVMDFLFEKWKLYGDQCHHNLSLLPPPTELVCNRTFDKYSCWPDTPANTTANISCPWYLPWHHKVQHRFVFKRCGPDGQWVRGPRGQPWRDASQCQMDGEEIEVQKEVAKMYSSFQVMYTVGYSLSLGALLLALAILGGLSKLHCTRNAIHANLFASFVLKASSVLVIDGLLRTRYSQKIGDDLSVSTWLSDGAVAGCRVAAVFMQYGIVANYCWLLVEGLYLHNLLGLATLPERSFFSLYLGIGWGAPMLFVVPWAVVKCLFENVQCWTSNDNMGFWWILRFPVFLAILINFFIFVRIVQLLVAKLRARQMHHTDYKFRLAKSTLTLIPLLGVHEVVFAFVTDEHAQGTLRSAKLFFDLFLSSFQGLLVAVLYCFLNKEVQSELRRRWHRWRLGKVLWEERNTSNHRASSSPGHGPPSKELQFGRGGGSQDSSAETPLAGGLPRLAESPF

Chain of human GLP-1R (P43220 24-463): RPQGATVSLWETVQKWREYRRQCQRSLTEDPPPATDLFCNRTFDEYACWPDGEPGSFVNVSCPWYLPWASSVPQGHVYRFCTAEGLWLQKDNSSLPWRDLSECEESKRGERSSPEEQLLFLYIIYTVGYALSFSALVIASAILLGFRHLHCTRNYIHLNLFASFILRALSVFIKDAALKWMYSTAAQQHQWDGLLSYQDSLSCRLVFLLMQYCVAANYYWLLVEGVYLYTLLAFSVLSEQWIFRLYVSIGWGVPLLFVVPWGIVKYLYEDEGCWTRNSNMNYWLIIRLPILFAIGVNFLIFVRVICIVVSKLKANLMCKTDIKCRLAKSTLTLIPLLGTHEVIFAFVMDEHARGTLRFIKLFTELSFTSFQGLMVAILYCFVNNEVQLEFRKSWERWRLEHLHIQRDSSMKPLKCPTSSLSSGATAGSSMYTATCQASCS

## CC(C)C[C@H](NC(=O)[C@H](Cc1ccc(O)cc1)NC(=O)[C@H](CCCCN)NC(=O)[C@H](CO)NC(=O)[C@H](CCCCNC(=O)COCCOCCNC(=O)COCCOCCNC(=O)CC[C@H](NC(=O)CCCCCCCCCCCCCCCCC(=O)O)C(=O)O)NC(=O)[C@H](CC(=O)O)NC(=O)[C@H](CO)NC(=O)[C@@H](NC(=O)[C@H](Cc1ccccc1)NC(=O)[C@@H](NC(=O)CNC(=O)[C@H](Cc1c[nH]cn1)NC(=O)[C@H](CO)NC(=O)[C@@H](N)Cc1ccc(O)cc1)[C@@H](C)O)[C@@H](C)O)C(=O)N[C@@H](CC(=O)O)C(=O)NC(C)(C)C(=O)N[C@@H](CCCCN)C(=O)N[C@@H](CO)C(=O)N[C@@H](C)C(=O)N[C@@H](CCC(N)=O)C(=O)N[C@@H](CCC(=O)O)C(=O)N[C@@H](Cc1ccccc1)C(=O)N[C@H](C(=O)NC(C)(C)C(=O)N[C@@H](Cc1c[nH]c2ccccc12)C(=O)N[C@@H](CC(C)C)C(=O)N[C@@H](CCC(=O)O)C(=O)N[C@@H](CC(=O)O)C(=O)N[C@@H](CCC(=O)O)C(=O)N1CCC[C@H]1C(=O)N[C@@H](CO)C(=O)N[C@@H](CO)C(=O)NCC(=O)N[C@@H](C)C(=O)N1CCC[C@H]1C(=O)N1CCC[C@H]1C(=O)N1CCC[C@H]1C(=O)N[C@@H](CO)C(=O)O)C(C)C [Compound B16] (H-YSHGTFTSDK([AEEA-AEEA-γGlu-C18 diacid])SKYLD[Aib]KSAQEFV[Aib]WLEDEPSSGAPPPS-OH)
Human GLP-1R
  EC50: 5.01 nM
Human GCGR
  EC50: 3.16 nM

## CCCCCCCCCCCCCCCC(=O)N[C@@H](CCC(=O)NCCCC[C@H](NC(=O)[C@H](CO)NC(=O)[C@H](CO)NC(=O)[C@@H]1CCCN1C(=O)[C@H](CCC(=O)O)NC(=O)[C@H](CC(=O)O)NC(=O)[C@H](CCC(=O)O)NC(=O)[C@H](CC(C)C)NC(=O)[C@H](Cc1c[nH]c2ccccc12)NC(=O)C(C)(C)NC(=O)[C@@H](NC(=O)[C@H](Cc1ccccc1)NC(=O)[C@H](CCC(=O)O)NC(=O)[C@H](CCC(N)=O)NC(=O)[C@H](C)NC(=O)[C@H](CCCNC(=N)N)NC(=O)[C@H](CCCCN)NC(=O)C(C)(C)NC(=O)[C@H](CC(=O)O)NC(=O)[C@H](CC(C)C)NC(=O)[C@H](Cc1ccc(O)cc1)NC(=O)[C@H](CCCCN)NC(=O)[C@H](CO)NC(=O)[C@H](Cc1ccc(O)cc1)NC(=O)[C@H](CC(=O)O)NC(=O)[C@H](CO)NC(=O)[C@@H](NC(=O)[C@H](Cc1ccccc1)NC(=O)[C@@H](NC(=O)CNC(=O)[C@H](CCC(N)=O)NC(=O)[C@H](CO)NC(=O)[C@@H](N)Cc1c[nH]c2ccccc12)[C@@H](C)O)[C@@H](C)O)C(C)C)C(=O)N[C@@H](C)C(=O)N1CCC[C@H]1C(=O)N1CCC[C@H]1C(=O)N1CCC[C@H]1C(=O)N[C@@H](CO)C(=O)O)C(=O)O [Compound B17] (H-WSQGTFTSDYSKYLD[Aib]KRAQEFV[Aib]WLEDEPSSK([γGlu-Palmitoyl])APPPS-OH)
Human GLP-1R
  EC50: > 1000 nM
Human GCGR
  EC50: 0.0316 nM

## CCCCCCCCCCCCCCCC(=O)N[C@@H](CCC(=O)NCCCC[C@H](NC(=O)[C@@H](NC(=O)[C@H](Cc1ccccc1)NC(=O)[C@H](CCC(=O)O)NC(=O)[C@H](CCC(N)=O)NC(=O)[C@H](C)NC(=O)[C@H](CCCNC(=N)N)NC(=O)[C@H](CCCCN)NC(=O)C(C)(C)NC(=O)[C@H](CC(=O)O)NC(=O)[C@H](CC(C)C)NC(=O)[C@H](Cc1ccc(O)cc1)NC(=O)[C@H](CCCCN)NC(=O)[C@H](CO)NC(=O)[C@H](Cc1ccc(O)cc1)NC(=O)[C@H](CC(=O)O)NC(=O)[C@H](CO)NC(=O)[C@@H](NC(=O)[C@H](Cc1ccccc1)NC(=O)[C@@H](NC(=O)CNC(=O)[C@H](CCC(N)=O)NC(=O)[C@H](CO)NC(=O)[C@@H](N)Cc1c[nH]c2ccccc12)[C@@H](C)O)[C@@H](C)O)C(C)C)C(=O)N[C@@H](Cc1c[nH]c2ccccc12)C(=O)N[C@@H](CC(C)C)C(=O)N[C@@H](CCC(=O)O)C(=O)N[C@@H](CC(=O)O)C(=O)N[C@@H](CCC(=O)O)C(=O)N1CCC[C@H]1C(=O)N[C@@H](CO)C(=O)N[C@@H](CO)C(=O)NCC(=O)N[C@@H](C)C(=O)N1CCC[C@H]1C(=O)N1CCC[C@H]1C(=O)N1CCC[C@H]1C(=O)N[C@@H](CO)C(=O)O)C(=O)O [Compound B18] (H-WSQGTFTSDYSKYLD[Aib]KRAQEFVK([γGlu-Palmitoyl])WLEDEPSSGAPPPS-OH)
Human GLP-1R
  EC50: > 1000 nM
Human GCGR
  EC50: 0.0631 nM

## CCCCCCCCCCCCCCCC(=O)N[C@@H](CCC(=O)NCCCC[C@H](NC(=O)[C@H](CC(=O)O)NC(=O)[C@H](CC(C)C)NC(=O)[C@H](Cc1ccc(O)cc1)NC(=O)[C@H](CCCCN)NC(=O)[C@H](CO)NC(=O)[C@H](Cc1ccc(O)cc1)NC(=O)[C@H](CC(=O)O)NC(=O)[C@H](CO)NC(=O)[C@@H](NC(=O)[C@H](Cc1ccccc1)NC(=O)[C@@H](NC(=O)CNC(=O)[C@H](CCC(N)=O)NC(=O)[C@H](CO)NC(=O)[C@@H](N)Cc1c[nH]c2ccccc12)[C@@H](C)O)[C@@H](C)O)C(=O)N[C@@H](CCCCN)C(=O)N[C@@H](CCCNC(=N)N)C(=O)N[C@@H](C)C(=O)N[C@@H](CCC(N)=O)C(=O)N[C@@H](CCC(=O)O)C(=O)N[C@@H](Cc1ccccc1)C(=O)N[C@H](C(=O)NC(C)(C)C(=O)N[C@@H](Cc1c[nH]c2ccccc12)C(=O)N[C@@H](CC(C)C)C(=O)N[C@@H](CCC(=O)O)C(=O)N[C@@H](CC(=O)O)C(=O)N[C@@H](CCC(=O)O)C(=O)N1CCC[C@H]1C(=O)N[C@@H](CO)C(=O)N[C@@H](CO)C(=O)NCC(=O)N[C@@H](C)C(=O)N1CCC[C@H]1C(=O)N1CCC[C@H]1C(=O)N1CCC[C@H]1C(=O)N[C@@H](CO)C(=O)O)C(C)C)C(=O)O [Compound B19] (H-WSQGTFTSDYSKYLDK([γGlu-Palmitoyl])KRAQEFV[Aib]WLEDEPSSGAPPPS-OH)
Human GLP-1R
  EC50: 501 nM
Human GCGR
  EC50: 0.0251 nM

## CCCCCCCCCCCCCCCC(=O)N[C@@H](CCC(=O)NCCCC[C@H](NC(=O)[C@H](CC(=O)O)NC(=O)[C@H](CO)NC(=O)[C@@H](NC(=O)[C@H](Cc1ccccc1)NC(=O)[C@@H](NC(=O)CNC(=O)[C@H](CCC(N)=O)NC(=O)[C@H](CO)NC(=O)[C@@H](N)Cc1c[nH]c2ccccc12)[C@@H](C)O)[C@@H](C)O)C(=O)N[C@@H](CO)C(=O)N[C@@H](CCCCN)C(=O)N[C@@H](Cc1ccc(O)cc1)C(=O)N[C@@H](CC(C)C)C(=O)N[C@@H](CC(=O)O)C(=O)NC(C)(C)C(=O)N[C@@H](CCCCN)C(=O)N[C@@H](CCCNC(=N)N)C(=O)N[C@@H](C)C(=O)N[C@@H](CCC(N)=O)C(=O)N[C@@H](CCC(=O)O)C(=O)N[C@@H](Cc1ccccc1)C(=O)N[C@H](C(=O)NC(C)(C)C(=O)N[C@@H](Cc1c[nH]c2ccccc12)C(=O)N[C@@H](CC(C)C)C(=O)N[C@@H](CCC(=O)O)C(=O)N[C@@H](CC(=O)O)C(=O)N[C@@H](CCC(=O)O)C(=O)N1CCC[C@H]1C(=O)N[C@@H](CO)C(=O)N[C@@H](CO)C(=O)NCC(=O)N[C@@H](C)C(=O)N1CCC[C@H]1C(=O)N1CCC[C@H]1C(=O)N1CCC[C@H]1C(=O)N[C@@H](CO)C(=O)O)C(C)C)C(=O)O [Compound B20] (H-WSQGTFTSDK([γGlu-Palmitoyl])SKYLD[Aib]KRAQEFV[Aib]WLEDEPSSGAPPPS-OH)
Human GLP-1R
  EC50: 316 nM
Human GCGR
  EC50: 0.00794 nM

## CC(C)C[C@H](NC(=O)[C@H](Cc1ccc(O)cc1)NC(=O)[C@H](CCCCN)NC(=O)[C@H](CO)NC(=O)[C@H](Cc1ccc(O)cc1)NC(=O)[C@H](CC(=O)O)NC(=O)[C@H](CO)NC(=O)[C@@H](NC(=O)[C@H](Cc1ccccc1)NC(=O)[C@@H](NC(=O)CNC(=O)[C@H](CCC(N)=O)NC(=O)[C@H](CO)NC(=O)[C@@H](N)Cc1c[nH]c2ccccc12)[C@@H](C)O)[C@@H](C)O)C(=O)N[C@@H](CC(=O)O)C(=O)N[C@@H](CCCCNC(=O)COCCOCCNC(=O)COCCOCCNC(=O)CC[C@H](NC(=O)CCCCCCCCCCCCCCCCC(=O)O)C(=O)O)C(=O)N[C@@H](CCCCN)C(=O)N[C@@H](CCCNC(=N)N)C(=O)N[C@@H](C)C(=O)N[C@@H](CCC(N)=O)C(=O)N[C@@H](CCC(=O)O)C(=O)N[C@@H](Cc1ccccc1)C(=O)N[C@H](C(=O)NC(C)(C)C(=O)N[C@@H](Cc1c[nH]c2ccccc12)C(=O)N[C@@H](CC(C)C)C(=O)N[C@@H](CCC(=O)O)C(=O)N[C@@H](CC(=O)O)C(=O)N[C@@H](CCC(=O)O)C(=O)N1CCC[C@H]1C(=O)N[C@@H](CO)C(=O)N[C@@H](CO)C(=O)NCC(=O)N[C@@H](C)C(=O)N1CCC[C@H]1C(=O)N1CCC[C@H]1C(=O)N1CCC[C@H]1C(=O)N[C@@H](CO)C(=O)O)C(C)C [Compound B23] (H-WSQGTFTSDYSKYLDK([AEEA-AEEA-γGlu-C18 diacid])KRAQEFV[Aib]WLEDEPSSGAPPPS-OH)
Human GLP-1R
  EC50: 316 nM
Human GCGR
  EC50: 0.316 nM

## CCCCCCCCCCCCCCCC(=O)N[C@@H](CCC(=O)NCCCC[C@H](NC(=O)[C@H](CO)NC(=O)[C@H](CO)NC(=O)[C@@H]1CCCN1C(=O)[C@H](CCC(=O)O)NC(=O)[C@H](CC(=O)O)NC(=O)[C@H](CCC(=O)O)NC(=O)[C@H](CC(C)C)NC(=O)[C@H](Cc1c[nH]c2ccccc12)NC(=O)[C@@H](NC(=O)[C@@H](NC(=O)[C@H](Cc1ccccc1)NC(=O)[C@H](CCC(=O)O)NC(=O)[C@H](CCC(N)=O)NC(=O)[C@H](C)NC(=O)[C@H](CCCNC(=N)N)NC(=O)[C@H](CCCCN)NC(=O)C(C)(C)NC(=O)[C@H](CC(=O)O)NC(=O)[C@H](CC(C)C)NC(=O)[C@H](Cc1ccc(O)cc1)NC(=O)[C@H](CCCCN)NC(=O)[C@H](CO)NC(=O)[C@H](Cc1ccc(O)cc1)NC(=O)[C@H](CC(=O)O)NC(=O)[C@H](CO)NC(=O)[C@@H](NC(=O)[C@H](Cc1ccccc1)NC(=O)[C@@H](NC(=O)CNC(=O)[C@H](Cc1c[nH]cn1)NC(=O)[C@H](CO)NC(=O)[C@@H](N)Cc1ccc(O)cc1)[C@@H](C)O)[C@@H](C)O)C(C)C)[C@@H](C)CC)C(=O)N[C@@H](C)C(=O)N1CCC[C@H]1C(=O)N1CCC[C@H]1C(=O)N1CCC[C@H]1C(=O)N[C@@H](CO)C(=O)O)C(=O)O [Compound B25]
Human GLP-1R
  EC50: > 1000 nM
Human GCGR
  EC50: 0.0316 nM
